For test [1], the system named is batrachotoxin (BTX) binding site of the sodium channel. As to the kind of experiment: Affinity to the batrachotoxin (BTX) binding site of the sodium channel. The note with it: rat cerebrocortex synaptosomes, test concentration not given.
The next test deals with T1, 5-HT transporter (Rattus norvegicus, UniProt P31652).
T1 construct: synaptosomes of rat brain areas are freshly isolated; from tissue; host or cells: rat brain synaptosomes (P2 fraction) from marrow and pons
T1 sequence (P31652 whole entry): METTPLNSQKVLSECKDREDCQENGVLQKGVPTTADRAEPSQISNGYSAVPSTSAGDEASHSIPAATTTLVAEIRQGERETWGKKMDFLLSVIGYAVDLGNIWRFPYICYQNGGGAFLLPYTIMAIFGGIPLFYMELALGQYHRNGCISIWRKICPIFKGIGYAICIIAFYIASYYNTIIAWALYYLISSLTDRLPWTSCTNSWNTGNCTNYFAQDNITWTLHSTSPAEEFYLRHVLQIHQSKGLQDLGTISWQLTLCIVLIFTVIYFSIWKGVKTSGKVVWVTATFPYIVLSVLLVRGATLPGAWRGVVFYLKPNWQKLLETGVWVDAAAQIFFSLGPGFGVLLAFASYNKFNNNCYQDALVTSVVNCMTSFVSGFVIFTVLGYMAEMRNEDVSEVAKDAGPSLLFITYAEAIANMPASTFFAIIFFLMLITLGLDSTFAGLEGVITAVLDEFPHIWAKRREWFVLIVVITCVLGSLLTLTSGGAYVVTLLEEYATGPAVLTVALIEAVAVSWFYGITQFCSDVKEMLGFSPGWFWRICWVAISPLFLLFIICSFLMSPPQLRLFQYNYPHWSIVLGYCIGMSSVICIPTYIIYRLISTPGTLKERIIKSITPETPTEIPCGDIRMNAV
As to the kind of experiment: Inhibition of 5-HT uptake in rat brain synaptosomes. The test is classed as biochemical. The note with it: Table II, rat, 1 μM; for inhibition at 1 µM: read-out: Uptake 5-HT, % inhibition.

Molecules are shown by their SMILES.

Consider `COc1ccc(CN2C(=O)[C@H](Cc3ccccc3)NC23CCN(C(=O)c2ccc(Cl)cc2)CC3)cc1.Cl` (racemic) [Example 27, 3-(S,R)-benzyl-8-(4-chloro-benzoyl)-1-(4-methoxy-benzyl)-1,4,8-triazaspiro[4,5]decan-2-one hydrochloride], for which the BTX inhibition in test [1] (Table II) was determined as 79. For the same molecule, the “Uptake 5-HT, rat, 1 μM, % inhibition” value at 5-HT transporter worked out at 78%.
`CCC(CC)C(=O)N1CCC2(CC1)N[C@@H](Cc1ccccc1)C(=O)N2Cc1ccc(OC)cc1.Cl` (racemic) [Example 30, 3-(S,R)-benzyl-8-(2-ethylbutyryl)-1-(4-methoxybenzyl)-1,4,8-triazaspiro[4,5]decan-2-one hydrochloride]: the BTX inhibition in test [1] (Table II) is 35. For the same molecule, on 5-HT transporter, the “Uptake 5-HT, rat, 1 μM, % inhibition” value is 42%.
`Cl.O=C1[C@H](Cc2ccccc2)NC2(CCNCC2)N1Cc1ccccc1` [Example 38, 1,3-(S)-Dibenzyl-1,4,8-triazaspiro[4,5]decan-2-one hydrochloride] had a BTX inhibition in test [1] (Table II) of 87. In addition, on 5-HT transporter, the inhibition – broadly, the drop in the measured response relative to a control, in per cent – at 1 µM came out at 94%.
In test [1] (Table II), `Cl.O=C(c1cccc(F)c1F)N1CCC2(CC1)N[C@@H](Cc1ccccc1)C(=O)N2Cc1ccccc1` [Example 54, 1,3-(S)-dibenzyl-8-(2,3-difluorobenzoyl)-1,4,8-triazaspiro[4,5]decan-2-one hydrochloride] showed a BTX inhibition of 37. Further, at 5-HT transporter, the inhibition at 1 µM came to 81%.
The like results for `Cl.O=C(CCc1ccccc1)N1CCC2(CC1)N[C@@H](Cc1ccccc1)C(=O)N2Cc1ccccc1` [Example 58, 1,3-(S)-dibenzyl-8-(3-phenylpropionyl)-1,4,8-triazaspiro[4,5]decan-2-one hydrochloride] were, in that order, 46 and 46%.
`CSCCC1NC2(CCN(C(=O)c3cccc(Cl)c3F)CC2)N(Cc2cc(C)cc(C)c2)C1=O` (centres unmarked) [Example 156, 8-(3-Chloro-2-fluorobenzoyl)-1-(3,5-dimethylbenzyl)-3-(2-methylsulfanylethyl)-1,4,8-triazaspiro[4,5]decan-2-one]: in test [1] (Table III), the BTX inhibition was found to be 60.
Same read-out and setting: next, `CC(C)C1NC2(CCN(C(=O)COc3cccc(Cl)c3)CC2)N(CCOc2ccccc2)C1=O` (centres unmarked) [Example 165, 8-[2-(3-Chlorophenoxy)acetyl]-3-isopropyl-1-(2-phenoxyethyl)-1,4,8-triazaspiro[4,5]decan-2-one]: 63; `CSCCC1NC2(CCN(C(=O)c3cccc(C)c3C)CC2)N(C)C1=O` (centres unmarked) [Example 166, 8-(2,3-Dimethylbenzoyl)-1-methyl-3-(2-methylsulfanylethyl)-1,4,8-triazaspiro[4,5]decan-2-one]: 47; `CSCCC1NC2(CCN(C(=O)c3c(-c4ccccc4Cl)noc3C)CC2)N(Cc2cc(C)cc(C)c2)C1=O` (centres unmarked) [Example 169, 8-[3-(2-Chlorophenyl)-5-methylisoxazole-4-carbonyl]-1-(3,5-dimethylbenzyl)-3-(2-methylsulfanylethyl)-1,4,8-triazaspiro[4,5]decan-2-one]: 51.
For `CCOc1ccc(C(=O)N2CCC3(CC2)NC(CC(C)C)C(=O)N3Cc2ccccc2)cc1` (centres unmarked) [Example 179, 1-Benzyl-8-(4-ethoxybenzoyl)-3-isobutyl-1,4,8-triazaspiro[4,5]decan-2-one], the BTX inhibition in test [1] (Table III) came out at 46.
In test [1] (Table III), `CSCCC1NC2(CCN(C(=O)c3c(-c4c(F)cccc4Cl)noc3C)CC2)N(Cc2cccc(C#N)c2)C1=O` (centres unmarked) [Example 181, 3-[8-[3-(2-Chloro-6-fluorophenyl)-5-methylisoxazole-4-carbonyl]-3-(2-methylsulfanylethyl)-2-oxo-1,4,8-triazaspiro[4,5]dec-1-ylmethyl]benzonitrile] showed a BTX inhibition of 43.
Still for that read-out and setting: then `CN1C(=O)C(Cc2ccccc2)NC12CCN(C(=O)COc1ccccc1)CC2` (centres unmarked) [Example 184, 3-Benzyl-1-methyl-8-(2-phenoxyacetyl)-1,4,8-triazaspiro[4,5]decan-2-one], with 62; and `CCCCC(=O)N1CCC2(CC1)NC(CCSC)C(=O)N2Cc1cc(C)cc(C)c1` (centres unmarked) [Example 189, 1-(3,5-Dimethylbenzyl)-3-(2-methylsulfanylethyl)-8-pentanoyl-1,4,8-triazaspiro[4,5]decan-2-one], with 40.
The same measure, in the same setting: next, `Cc1oc(C(C)(C)C)cc1C(=O)N1CCC2(CC1)NC(C(C)C)C(=O)N2CCOc1ccccc1` (centres unmarked) [Example 196, 8-(5-tert-Butyl-2-methylfuran-3-carbonyl)-3-isopropyl-1-(2-phenoxyethyl)-1,4,8-triazaspiro[4,5]decan-2-one]: 52.
The same measure, in the same setting: next, `CC(C)CC1NC2(CCN(C(=O)CC3CCCC3)CC2)N(Cc2ccc(F)cc2)C1=O` (centres unmarked) [Example 197, 8-(2-Cyclopentylacetyl)-1-(4-fluorobenzyl)-3-isobutyl-1,4,8-triazaspiro[4,5]decan-2-one]: 41; `COC(=O)c1ccc(CN2C(=O)C(C(C)C)NC23CCN(C(=O)CC(C)(C)C)CC3)cc1` (centres unmarked) [Example 198, Methyl 4-[8-(3,3-dimethylbutyryl)-3-isopropyl-2-oxo-1,4,8-triazaspiro[4,5]dec-1-ylmethyl]benzoate]: 30.
`CCCCN1C(=O)C(C(C)C)NC12CCN(C(=O)CC1CCCC1)CC2` (centres unmarked) [Example 201, 1-Butyl-8-(2-cyclopentylacetyl)-3-isopropyl-1,4,8-triazaspiro[4,5]decan-2-one] displayed a BTX inhibition in test [1] (Table III) of 42.
Same read-out and setting: next, `CSCCC1NC2(CCN(C(=O)C=Cc3cccc(C(F)(F)F)c3)CC2)N(C)C1=O` (centres unmarked) [Example 208, 1-Methyl-3-(2-methylsulfanylethyl)-8-[3-(3-trifluoromethylphenyl)acryloyl]-1,4,8-triazaspiro[4,5]decan-2-one]: 33.
The same measure, in the same setting: next, `C#CCN1C(=O)C(CCSC)NC12CCN(C(=O)c1ccc(-c3ccccc3)cc1)CC2` (centres unmarked) [Example 213, 8-(Biphenyl-4-carbonyl)-3-(2-methylsulfanylethyl)-1-prop-2-ynyl-1,4,8-triazaspiro[4,5]decan-2-one]: 43; `COc1ccc(CC(=O)N2CCC3(CC2)NC(CCSC)C(=O)N3Cc2ccc(F)cc2)cc1` (centres unmarked) [Example 215, 1-(4-Fluorobenzyl)-8-[2-(4-methoxyphenyl)acetyl]-3-(2-methylsulfanylethyl)-1,4,8-triazaspiro[4,5]decan-2-one]: 32.
On the same count and under the same terms, next, `CC(C)CC1NC2(CCN(C(=O)CCC3CCCC3)CC2)N(Cc2ccccc2F)C1=O` (centres unmarked) [Example 220, 8-(3-Cyclopentylpropionyl)-1-(2-fluorobenzyl)-3-isobutyl-1,4,8-triazaspiro[4,5]decan-2-one]: 62; `CC(C)CC1NC2(CCN(C(=O)c3ccc(C(F)(F)F)c(F)c3)CC2)N(Cc2ccccc2)C1=O` (centres unmarked) [Example 241, 1-Benzyl-8-(3-fluoro-4-trifluoromethylbenzoyl)-3-isobutyl-1,4,8-triazaspiro[4,5]decan-2-one]: 58.
In turn, `CN1C(=O)C(Cc2ccccc2)NC12CCN(C(=O)C1COc3ccc(Cl)cc3C1)CC2` (centres unmarked) [Example 242, 3-Benzyl-8-(6-chloro-2H-chroman-3-carbonyl)-1-methyl-1,4,8-triazaspiro[4,5]decan-2-one] came in with a BTX inhibition in test [1] (Table III) of 42.
On the same count and under the same terms, then `CC(C)C1NC2(CCN(C(=O)C3COc4ccc(Cl)cc4C3)CC2)N(Cc2ccccc2C#N)C1=O` (centres unmarked) [Example 245, 2-[8-(6-Chloro-2H-chroman-3-carbonyl)-3-isopropyl-2-oxo-1,4,8-triazaspiro[4,5]dec-1-ylmethyl]benzonitrile], with 60; and `CC(C)C1NC2(CCN(C(=O)c3cccc(Cl)c3F)CC2)N(Cc2ccccc2C#N)C1=O` (centres unmarked) [Example 247, 2-[8-(3-Chloro-2-fluorobenzoyl)-3-isopropyl-2-oxo-1,4,8-triazaspiro[4,5]dec-1-ylmethyl]benzonitrile], with 32.
The molecule `COC(=O)c1ccc(CN2C(=O)CNC23CCN(C(=O)c2snnc2C)CC3)cc1` [Example 258, Methyl 4-[8-(4-methyl[1,2,3]thiadiazole-5-carbonyl)-2-oxo-1,4,8-triazaspiro[4,5]dec-1-ylmethyl]benzoate] registered a BTX inhibition in test [1] (Table III) of 32.
Still for that read-out and setting: next, `CCCCC(=O)N1CCC2(CC1)NCC(=O)N2Cc1cccc(C#N)c1` [Example 268, 3-(2-Oxo-8-pentanoyl-1,4,8-triazaspiro[4,5]dec-1-ylmethyl)benzonitrile]: 31; `O=C(c1ccnc(Cl)c1)N1CCC2(CC1)NCC(=O)N2Cc1ccccc1F` [Example 300, 8-(2-Chloropyridin-4-carbonyl)-1-(2-fluorobenzyl)-1,4,8-triazaspiro[4,5]decan-2-one]: 33; `C=CCN1C(=O)C(CCSC)NC12CCN(C(=O)c1c(F)c(F)c(F)c(F)c1F)CC2` (centres unmarked) [Example 302, 1-Allyl-3-(2-methylsulfanylethyl)-8-pentafluorobenzoyl-1,4,8-triazaspiro[4,5]decan-2-one]: 39.
Same read-out and setting: then `O=C(c1ccccc1C(F)(F)F)N1CCC2(CC1)NCC(=O)N2Cc1ccccc1F` [Example 303, 1-(2-Fluorobenzyl)-8-(2-trifluoromethylbenzoyl)-1,4,8-triazaspiro[4,5]decan-2-one], with 30; and `C=CCCC(=O)N1CCC2(CC1)NC(C(C)C)C(=O)N2CC=C` (centres unmarked) [Example 307, 1-Allyl-3-isopropyl-8-pent-4-enoyl-1,4,8-triazaspiro[4,5]decan-2-one], with 31; and `CCOC(=O)CN1C(=O)C(CCSC)NC12CCN(C(=O)c1ccc(C(F)(F)F)cc1)CC2` (centres unmarked) [Example 322, Ethyl [3-(2-methylsulfanylethyl)-2-oxo-8-(4-trifluoromethylbenzoyl)-1,4,8-triazaspiro[4,5]dec-1-yl]acetate], with 36.
Still for that read-out and setting: then `CC(C)CC1NC2(CCN(C(=O)c3cc(C(F)(F)F)ccc3Cl)CC2)N(Cc2c(Cl)cccc2Cl)C1=O` (centres unmarked) [Example 326, 8-(2-Chloro-5-trifluoromethylbenzoyl)-1-(2,6-dichlorobenzyl)-3-isobutyl-1,4,8-triazaspiro[4,5]decan-2-one], with 68.

The values are drawn from US7951815B2, “Substituted 1,4,8-triazaspiro [4,5]decan-2-one compounds” (Gruenenthal GmbH, priority 2004, dated 2011).
